Measured values taken from US20260042764A1, “COMPOSITIONS AND METHODS FOR INHIBITION OF KRAS” (TheRas, Inc., priority 2022, published 2026).

Assays:
[1] = biological target: T1, Avi-KRAS G12D (1-169) GppNHp/RAF1 RBD-3xFLAG (52-151) (Homo sapiens, UniProt P01116, G12D); experiment: Raf1-KRAS G12D-GppNHP disruption HTRF assay (Biological Example 1); assay type: binding
T1 construct: Avi-KRAS G12D (1-169)
In short: (§1)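 Protein mix, 1 h RT, 700 rpm; reagent mix, 1 h RT, 700 rpm; HTRF read. Buffer Tris pH 7.5/NaCl/MgCl2/BSA/Tween, 10% DMSO. Output % activity, DMSO = 100%.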

[2] = biological target: T2, Avi-KRAS WT (1-169) GppNHp/RAF1 RBD-3xFLAG (52-151) (Homo sapiens, UniProt P01116); experiment: Raf1-KRAS WT-GppNHP disruption HTRF assay (Biological Example 1); assay type: binding
T2 construct: Avi-KRAS WT (1-169)
T2 sequence (P01116 1-169 isoform P01116-2): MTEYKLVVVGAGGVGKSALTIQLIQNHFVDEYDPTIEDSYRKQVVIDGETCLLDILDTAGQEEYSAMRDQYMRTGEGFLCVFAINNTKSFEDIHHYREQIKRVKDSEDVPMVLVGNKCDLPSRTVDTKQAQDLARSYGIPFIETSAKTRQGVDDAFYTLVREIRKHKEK
In short: as §1

GP2d cells (KRAS G12D) = experiment: Cell-based pERK HTRF assay in GP2d cell (Biological Example 2); settings: GP2d, GP2d (KRAS G12D) cells, pERK HTRF
In short: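 HTRF read-out of pERK (excitation 320 nm, emission 615 nm) after lysates sat 4–24 h at room temperature with Eu cryptate and d2 antibodies.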

[3] = biological target: T3, Avi-KRAS G12R (1-169) GppNHp/RAF1 RBD-3xFLAG (52-151) (Homo sapiens, UniProt P01116, G12R); experiment: Raf1-KRAS G12R-GppNHP disruption HTRF assay (Biological Example 1); assay type: binding
T3 construct: Avi-KRAS G12R (1-169)
T3 sequence (P01116 1-169 isoform P01116-2 G12R): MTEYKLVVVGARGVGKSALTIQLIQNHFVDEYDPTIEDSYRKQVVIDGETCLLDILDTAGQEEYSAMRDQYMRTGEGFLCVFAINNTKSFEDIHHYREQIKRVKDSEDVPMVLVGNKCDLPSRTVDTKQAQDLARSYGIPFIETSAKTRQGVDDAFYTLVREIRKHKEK
In short: as §1

[4] = biological target: T4, Avi-KRAS G12V (1-169) GppNHp/RAF1 RBD-3xFLAG (52-151) (Homo sapiens, UniProt P01116, G12V); experiment: Raf1-KRAS G12V-GppNHP disruption HTRF assay (Biological Example 1); assay type: binding
T4 construct: Avi-KRAS G12V (1-169)
T4 sequence (P01116 1-169 isoform P01116-2 G12V): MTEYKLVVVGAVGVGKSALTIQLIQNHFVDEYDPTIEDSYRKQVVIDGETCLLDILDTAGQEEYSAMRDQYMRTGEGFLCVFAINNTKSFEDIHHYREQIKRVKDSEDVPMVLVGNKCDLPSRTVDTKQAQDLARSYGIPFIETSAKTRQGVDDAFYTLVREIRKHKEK
In short: as §1

SW620 cells (KRAS G12V) = experiment: Cell-based pERK HTRF assay in SW620 cell (Biological Example 4); settings: Homo sapiens, SW-620, SW620 (KRAS G12V) cells, pERK HTRF
In short: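 SW620 seeded in RPMI/10% FBS, next day dosed 4 h (top 1 μM, half-log, 9 pts, 0.25% DMSO). Lysed, pERK by d2/Eu cryptate HTRF, 4–24 h RT, 615 nm read.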

[5] = KRAS G12D, GppNHp-loaded, Table 11
[6] = KRAS WT, GppNHp-loaded, Table 11
[7] = KRAS G12R, GppNHp-loaded, Table 11
[8] = KRAS G12V, GppNHp-loaded, Table 11
[9] = KRAS G12D, GppNHp-loaded, class symbols
[10] = KRAS WT, GppNHp-loaded, class symbols
[11] = KRAS G12R, GppNHp-loaded, class symbols
[12] = KRAS G12V, GppNHp-loaded, class symbols

T1 sequence (P01116 1-169 isoform P01116-2 G12D): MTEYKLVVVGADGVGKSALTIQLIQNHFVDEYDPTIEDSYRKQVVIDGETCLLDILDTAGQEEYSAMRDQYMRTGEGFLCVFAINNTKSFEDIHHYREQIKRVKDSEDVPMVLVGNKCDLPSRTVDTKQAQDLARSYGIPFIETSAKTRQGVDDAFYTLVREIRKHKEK

SMILES | IC50 ([1]; KRAS G12D-GppNHp/RAF1 RBD HTRF) [nM] | IC50 ([2]; KRAS WT-GppNHp/RAF1 RBD HTRF) [nM] | IC50 (GP2d cells (KRAS G12D)) [nM] | IC50 ([3]; KRAS G12R-GppNHp/RAF1 RBD HTRF) [nM] | IC50 ([4]; KRAS G12V-GppNHp/RAF1 RBD HTRF) [nM] | IC50 (SW620 cells (KRAS G12V)) [nM] | IC50 [1, 5] [nM] | IC50 [2, 6] [nM] | IC50 [3, 7] [nM] | IC50 [4, 8] [nM] | IC50 [1, 9] [nM] | IC50 [2, 10] [nM] | IC50 (GP2d cells (KRAS G12D); class symbols) [nM] | IC50 [3, 11] [nM] | IC50 [4, 12] [nM] | IC50 (SW620 cells (KRAS G12V); class symbols) [nM]
CC(C)C(=O)N1CC[C@@H]2[C@H]1CN2c1nc(OC[C@@]23CCCN2C[C@H](F)C3)nc2c(F)c(-c3ccc(F)c4sc(N)c(C#N)c34)c(C(F)(F)F)cc12 [Compound 536] | 1000 to 10000 | 1000 to 10000 | < 100 | 1000 to 10000 | 1000 to 10000 | < 100 | – | – | – | – | – | – | – | – | – | –
N#Cc1c(N)sc2c(F)ccc(-c3c(C(F)(F)F)cc4c(N5CCCC6(C5)NC(=O)NC6=O)nc(OC[C@@]56CCCN5C[C@H](F)C6)nc4c3F)c12 (stereo partly drawn) [Compound 248] | – | – | 100 to 1000 | – | – | 100 to 1000 | 100 to 1000 | 100 to 1000 | 100 to 1000 | 100 to 1000 | – | – | – | – | – | –
N#Cc1c(N)sc2c(F)ccc(-c3c(C(F)(F)F)cc4c(N5CCOC6CC65)nc(OC[C@@]56CCCN5C[C@H](F)C6)nc4c3F)c12 (stereo partly drawn) [Compound 148] | – | – | < 100 | – | – | < 100 | 100 to 1000 | 100 to 1000 | 100 to 1000 | 100 to 1000 | – | – | – | – | – | –
CC(=O)N1CC[C@H](N(C)c2nc(OC[C@@H]3C[C@@H](F)CN3C)nc3c(F)c(-c4ccc(F)c5sc(N)c(C#N)c45)c(C(F)(F)F)cc23)[C@@H]1C [Compound 226] | – | – | > 1000 | – | – | > 1000 | > 10000 | > 10000 | > 10000 | > 10000 | – | – | – | – | – | –
CN(c1nc(OC[C@@]23CCCN2C[C@H](F)C3)nc2c(F)c(-c3ccc(F)c4sc(N)c(C#N)c34)c(C(F)(F)F)cc12)[C@@H]1CC(=O)N(Cc2ccccc2)C1 [Compound 452] | 100 to 1000 | 100 to 1000 | < 100 | 100 to 1000 | 100 to 1000 | 100 to 1000 | – | – | – | – | – | – | – | – | – | –
N#Cc1c(N)sc2c(F)ccc(-c3c(C(F)(F)F)cc4c(N5C[C@@H]6[C@H]5CCN6C(=O)C5CC5)nc(OC[C@@]56CCCN5C[C@H](F)C6)nc4c3F)c12 [Compound 535] | 1000 to 10000 | 1000 to 10000 | < 100 | 1000 to 10000 | 1000 to 10000 | < 100 | – | – | – | – | – | – | – | – | – | –

The remaining lines, values ahead:

IC50 ([1]; KRAS G12D-GppNHp/RAF1 RBD HTRF) [nM] | IC50 ([2]; KRAS WT-GppNHp/RAF1 RBD HTRF) [nM] | IC50 (GP2d cells (KRAS G12D)) [nM] | IC50 ([3]; KRAS G12R-GppNHp/RAF1 RBD HTRF) [nM] | IC50 ([4]; KRAS G12V-GppNHp/RAF1 RBD HTRF) [nM] | IC50 (SW620 cells (KRAS G12V)) [nM] | IC50 [1, 5] [nM] | IC50 [2, 6] [nM] | IC50 [3, 7] [nM] | IC50 [4, 8] [nM] | IC50 [1, 9] [nM] | IC50 [2, 10] [nM] | IC50 (GP2d cells (KRAS G12D); class symbols) [nM] | IC50 [3, 11] [nM] | IC50 [4, 12] [nM] | IC50 (SW620 cells (KRAS G12V); class symbols) [nM] | SMILES
– | – | – | – | – | – | – | – | – | – | < 100 | < 100 | < 100 | < 100 | < 100 | < 100 | CCN(c1nc(OC[C@@]23CCCN2C[C@H](F)C3)nc2c(F)c(-c3ccc(F)c4sc(N)c(C#N)c34)c(C(F)(F)F)cc12)[C@H]1CCN(C(=O)N2CC(C#N)C2)C1 (atropisomer, axis not shown) [Compound 778]
100 to 1000 | 100 to 1000 | < 100 | 100 to 1000 | 100 to 1000 | < 100 | – | – | – | – | – | – | – | – | – | – | C[C@@H]1[C@H](N(C)c2nc(OC[C@@]34CCCN3C[C@H](F)C4)nc3c(F)c(-c4ccc(F)c5sc(N)c(C#N)c45)c(C(F)(F)F)cc23)CCN1C(=O)C(C)(C)C [Compound 312]
100 to 1000 | 100 to 1000 | < 100 | 1000 to 10000 | 1000 to 10000 | 100 to 1000 | – | – | – | – | – | – | – | – | – | – | CCN(c1nc(OC[C@@]23CCCN2C[C@H](F)C3)nc2c(F)c(-c3ccc(F)c4sc(N)c(C#N)c34)c(Cl)cc12)[C@@H]1CCN(C(C)=O)[C@H]1C [Compound 416]
– | – | – | – | – | – | – | – | – | – | < 100 | < 100 | < 100 | < 100 | < 100 | < 100 | CCN(c1nc(OC[C@@]23CCCN2C[C@H](F)C3)nc2c(F)c(-c3ccc(F)c4sc(N)c(C#N)c34)c(C(F)(F)F)cc12)[C@H]1CCN(C(=O)N2CCC2)C1 (atropisomer, axis not shown) [Compound 574]
– | – | – | – | – | – | – | – | – | – | < 100 | < 100 | < 100 | < 100 | < 100 | < 100 | CCN1C[C@@H](N(CC)c2nc(OC[C@@]34CCCN3C[C@H](F)C4)nc3c(F)c(-c4ccc(F)c5sc(N)c(C#N)c45)c(C(F)(F)F)cc23)CC1=O (atropisomer, axis not shown) [Compound 634]
